Where two headings read alike, the source gives them in different places.
Columns and labels:
rats = type: in vivo, rat; conditions: for Duration of sedation: 50 mg/kg; for Increase in comparative sedation: oral 10, 25 or 50 mg/kg, perphenazine and haloperidol rated at 10
Protocol: Twelve rats of each type were split into […] and dosed orally with 10, 25 or 50 mg/kg of the test compound in a vehicle comprising hydroxymethylcellulose (0.5%) in (0.9% saline). Each rat was housed singly, after dosing and observed closely for 2 hours, then intermittently for a further four hours, behavioural changes being noted.
The animals were left at least 72 hours before re-dosing to ensure the disappearance of residual hypotensive and sedative effects.

[1] = system: rats rendered hypertensive; assay: Anti-hypertensive activity in renal hypertensive rats (systolic pressure); type: in vivo, rat; conditions: 12 rats
Protocol: Anti-hypertensive activity is determined by the following procedure:
Male or female rats are rendered hypertensive by applying a figure of 8 ligature around one kidney and contralateral nephrectomy. Blood pressure stabilises at a hypertensive level after 6 weeks. Systolic pressure is measured indirectly using an E and M Pneumatic Tail Pulse Transducer and a Devices M2 recorder. A control group of rats is run with each group reacted with drug. Each group usually consists of six rats. Drugs are usually administered by the IP or oral routes. Pressures are read prior to drug administration and at 2 and 24 hours thereafter.
Blood pressure is expressed as % of control values at x hours after an oral dose of 25 mg/kg. In the test 12 rats were used instead of the usual 6.

[2] = Hypotensive and anti-hypertensive activity (statement in words); type: in vivo; conditions: compared with indoramin
in vivo = conditions: mouse
laboratory animals = assay: Toxicity and sedation, tests in laboratory animals (statement in words); conditions: compared with indoramin
[3] = normotensive rat (male and female)
[4] = renal hypertensive rat (female)
[5] = spontaneous hypertensive rat (male)
[6] = 2 hours after oral dose of 25 mg/kg
[7] = 6 hours after oral dose of 25 mg/kg
[8] = 24 hours after oral dose of 25 mg/kg

## O=C(NC1CCN(CCCC(=O)c2c[nH]c3ccccc23)CC1)c1ccccc1 [4-Benzamido-1-[4-(indol-3-yl)-4-oxobutyl]piperidine]
rats; [3]
  Duration of sedation: 6 h
  Approximate sedative potency ratio: 1
rats; [4]
  Duration of sedation: 6 h
  Approximate sedative potency ratio: 1
rats; [5]
  Duration of sedation: 6 h
  Approximate sedative potency ratio: 1
rats; normotensive rats
  Increase in comparative sedation: 1
rats; renal hypertensive rats
  Increase in comparative sedation: 2
rats; spontaneously hypertensive rats
  Increase in comparative sedation: 1
[1]; [6]
  Blood pressure expressed as % of control values: 60.9 % of control values
[1]; [7]
  Blood pressure expressed as % of control values: 62.0 % of control values
[1]; [8]
  Blood pressure expressed as % of control values: 99.0 % of control values
[2]
  hypotensive and anti-hypertensive activity: comparable to that of indoramin
In vivo; ip
  LD50: 542 mg/kg
  LD50 at 24 h: 1000 mg/kg
In vivo; po
  LD50: > 4000 mg/kg
  LD50 at 24 h: > 4000 mg/kg
Laboratory animals
  sedation: much less sedative
  toxicity: much less toxic

## O=C(NC1CCN(CCc2c[nH]c3ccccc23)CC1)c1ccccc1 [Indoramin, 3-[2(4-benzamidopiperid-1-xl)ethyl] indole, reference compound]
[1]; [6]
  Blood pressure expressed as % of control values: 78.0 % of control values
[1]; [7]
  Blood pressure expressed as % of control values: 76.0 % of control values
[1]; [8]
  Blood pressure expressed as % of control values: 98.0 % of control values

## O=C(CCCN1CCC(O)(c2ccc(Cl)cc2)CC1)c1ccc(F)cc1 [haloperidol, reference compound]
rats; rats, reference rating of the scale
  Sedation rating of comparison tranquillisers: 10

## OCCN1CCN(CCCN2c3ccccc3Sc3ccc(Cl)cc32)CC1 [perphenazine, reference compound]
rats; rat, in vivo
  Sedation rating of comparison tranquillisers: 10
